Results on two compounds are retold here after patent US8563578B2, “Antitumor properties of NO modified protease inhibitors” (Onconox APS, priority 2008, dated 2013).

One series has as its system rat primary astrocytes. Kind of series: Cell viability by CV test, primary astrocytes. The settings on record: 24 h, Sag at its IC50 dose. Type of series: cell-based. From the text:
Rat glioma C6 and human glioblastoma U251 cell lines were a kind gift from Dr. Pedro Tranque (Universidad de Castilla-La Mancha, Albacete, Spain), murine melanoma B 16, and human adenocarcinoma HeLa, were a kind gift from Dr. Sinisa Radulovic (Institute for Oncology and Radiology of Serbia, Belgrade, Serbia) while mouse fibrosarcoma L929 was obtained from the European Collection of Animal Cell Cultures (Salisbury, UK). Human breast HCC1419 and prostate PC-3 cells were purchased from LGC Promochem srl (Venezia, Italy). Primary mouse fibroblasts and rat astrocytes were prepared as described (Mijatovic et al. 2004). […]
Reduction of 3-4,5-dimethylthiazol-2-yl)-2,5-diphenyltetrazolium bromide (MTT) to formazan depends on mitochondrial activity of cultured cells, absorption of crystal violet dye correlates with the number of adherent, live cells, while the release of cytosolic lactate dehydrogenase (LDH) indicates the disruption of membrane integrity caracteristic for necrotic cells. […] Mitohondrial-dependent production of formazan and intensity of absorbed crystal violet by adherent cells were assessed by an automated microplate reader at 570 nm, while the pyruvate-mediated conversion of 2,4-dinitrophenylhydrazine into visible hydrazone precipitate in LDH assay was measured at 492 nm. […]
FIG. 2. […] Cell viability was then evaluated by CV test. […]

Series [1] has as its system B16 cells. Kind of series: LDH release assay, B16. It is filed as cell-based. The settings on record: for LDH release (cytotoxicity, necrosis): 24 h, different doses. The method, then: Reduction of 3-4,5-dimethylthiazol-2-yl)-2,5-diphenyltetrazolium bromide (MTT) to formazan depends on mitochondrial activity of cultured cells, absorption of crystal violet dye correlates with the number of adherent, live cells, while the release of cytosolic lactate dehydrogenase (LDH) indicates the disruption of membrane integrity caracteristic for necrotic cells. […] Mitohondrial-dependent production of formazan and intensity of absorbed crystal violet by adherent cells were assessed by an automated microplate reader at 570 nm, while the pyruvate-mediated conversion of 2,4-dinitrophenylhydrazine into visible hydrazone precipitate in LDH assay was measured at 492 nm. The % of cytotoxicity as indicated by LDH release was calculated as: (E−C)/(T−C)×100, where E is the experimental absorbance of cell cultures, C is the control absorbance of cell-free culture medium, and T is the absorbance corresponding to the maximal (100%) LDH release of Triton-lysed cells.
(§1) FIG. 4. […] Results are calculated as indicated in materials and methods and presented as mean±SD from representative of three independent experiment (*p <0.05). […] After 24 h of cultivation without or with drugs, cells were stained with AO orange (B) or PI (C) and analyzed by flow cytometry. The data are presented as mean±SD from three independent experiments. *p<0.05, refers to untreated cultures. […] Cells were incubated with 18.8 μM of Sag or Saq-NO2 for 24 h. After that, the drugs were either removed or not from the cells and incubated for additional 24 h. Cell viability was determined by CV test after 24 and 48 h of incubation (right panels). The data are presented as mean±SD from three independent experiments. *p<0.05, refers to untreated cultures.
Background: Release of lactate dehydrogenase indicates damage to the cell membrane.

In series [2] the test system is B16 cells. The series is described as follows: Autophagy detection by acridin orange staining, B16. Type of series: cell-based, mouse. The settings on record: 18.8 μM, 24 h. The method, then:
Vital dye acridin orange (AO) was used for detection of autophagy. The intensity of red fluorescence correlates with acidity and volume of present autophagic organelles (Kanzawa et al. 2004). Assay was performed as follows: the cells were cultured in 6-well plate (2×10^5/well) 24 h in the presence of the drug, detached with trypsin and stained with 1 μg/ml AO in RPMI without phenol red for 15 min at RT. After the end of incubation period cells were washed and resuspended in PBS. Green and red fluorescence emission was measured with a FACSCalibur and analyzed using CellQuest software.
as §1

A further series relates to C6 cells. The series is described as follows: Cell cycle / apoptosis by propidium iodide flow cytometry, C6. It is filed as cell-based, rat. To be noted: 18.8 μM, 24 h. As to the method: Apoptotic cell death was assessed by flow cytometry analysis of DNA fragmentation in cells stained with DNA-binding dye propidium iodide (PI). Following a 24 h incubation in 6-well plate, cells (2×10^5/well) were detached with trypsin, washed and fixed in 70% ethanol at 4° C. for 30 min. After washing in PBS, cells were resuspended in PBS containing 1 mg/ml RNase and propidium iodide (40 μg/ml) and kept at 37° C. in the dark for 30 min. Red fluorescence was analyzed with FACSCalibur flow cytometer (BD, Heidelberg, Germany) and distribution of cells among cell cycle phases was determined with Cell Quest Pro software (BD). Hypodiploid cells in sub-G0/G1 compartment were considered apoptotic.
as §1
In general terms: In flow cytometry, cells or beads pass a laser one at a time.

On to `CC(C)(C)NC(=O)[C@@H]1C[C@@H]2CCCC[C@@H]2CN1C[C@@H](O[N+](=O)[O-])[C@H](Cc1ccccc1)NC(=O)[C@H](CC(N)=O)NC(=O)c1ccc2ccccc2n1` [Saq-NO2, nitric ester of Saquinavir], for which the “effect on viability of non-transformed primary astrocytes” value in the series on rat primary astrocytes was “did not affect the viability”. For the same compound, the “LDH release (cytotoxicity, necrosis)” value with B16 cells [1] is “induced significant cytoxicity even at lowest dose tested”. The “LDH release (cytotoxicity, necrosis)” value in the series on B16 cells [1] (listed as Saq-NO) is “dose-dependent LDH release was detected upon all tested doses”. Moreover, the cytotoxicity at 18.8 µM in the series with B16 cells [1] (Mus musculus, 18.8 μM, 18 h of exposure, control 2.3%) was found to be 6.2%. Also, the “amount of acidic vesicles in the cytoplasm (autophagy)” value with B16 cells [2] was “absence of autophagia”. Further, in the series on C6 cells, the cell cycle distribution entry is recorded as “particularly marked arrest in G0/G1” and the “percentage of cells in subG compartment (apoptosis)” value was “slightly increased”.

`CC(C)(C)NC(=O)[C@@H]1C[C@@H]2CCCC[C@@H]2CN1C[C@@H](O)[C@H](Cc1ccccc1)NC(=O)[C@H](CC(N)=O)NC(=O)c1ccc2ccccc2n1` [Saq, Saquinavir, reference compound]: the “effect on viability of non-transformed primary astrocytes” value with rat primary astrocytes is “highly toxic”. In addition, in the series on B16 cells [1], the “LDH release (cytotoxicity, necrosis)” value is “induced LDH release in both cell lines in a dose-dependent way”. The “amount of acidic vesicles in the cytoplasm (autophagy)” value in the series on B16 cells [2] is listed as “absence of autophagia”. Further, in the series with C6 cells, the cell cycle distribution result was “did not show considerably different distribution from control”.
